In ChEMBL document CHEMBL3882724 (2013):

Experiments:
[1] = Half life in human liver microsomes at 1 uM by LC-MS/MS analysis
[2] = molecular target: T1, Steroid 17-alpha-hydroxylase/17,20 lyase (Homo sapiens, UniProt P05093); experiment: Inhibition of CYP17 in human testicular microsomes using 17alpha-hydroxypregnenolone as substrate assessed as decrease in DHEA levels at 1 nM after 90 mins by ELISA relative to control; design: species or system Testis
T1 sequence (P05093 whole entry): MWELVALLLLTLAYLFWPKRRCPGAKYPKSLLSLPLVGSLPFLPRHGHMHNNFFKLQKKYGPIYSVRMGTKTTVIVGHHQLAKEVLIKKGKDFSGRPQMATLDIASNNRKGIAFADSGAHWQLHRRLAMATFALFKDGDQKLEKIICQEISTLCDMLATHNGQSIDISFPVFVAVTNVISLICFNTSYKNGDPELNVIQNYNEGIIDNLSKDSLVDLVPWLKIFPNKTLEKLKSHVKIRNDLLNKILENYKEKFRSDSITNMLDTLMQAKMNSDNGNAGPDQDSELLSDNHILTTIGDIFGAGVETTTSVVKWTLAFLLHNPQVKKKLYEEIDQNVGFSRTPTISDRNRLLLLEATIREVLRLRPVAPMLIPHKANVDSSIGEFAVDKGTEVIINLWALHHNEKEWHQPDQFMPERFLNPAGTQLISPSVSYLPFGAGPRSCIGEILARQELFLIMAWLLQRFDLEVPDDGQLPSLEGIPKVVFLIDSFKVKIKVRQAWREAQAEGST

[3] = molecular target: T2, CYP21 (steroid 21-hydroxylase) (Homo sapiens, UniProt P08686); experiment: Inhibition of human CYP21 transfected in HEK293 cells assessed as decrease in conversion of progesterone to 11-deoxycorticosterone preincubated for 5 hrs followed by progesterone addition measured after 20 hrs by ELISA; format: cell-based; design: concentration or dose not given beside the values; conditions: HEK293 cells transfected with human CYP21, probe progesterone
T2 sequence (P08686 whole entry): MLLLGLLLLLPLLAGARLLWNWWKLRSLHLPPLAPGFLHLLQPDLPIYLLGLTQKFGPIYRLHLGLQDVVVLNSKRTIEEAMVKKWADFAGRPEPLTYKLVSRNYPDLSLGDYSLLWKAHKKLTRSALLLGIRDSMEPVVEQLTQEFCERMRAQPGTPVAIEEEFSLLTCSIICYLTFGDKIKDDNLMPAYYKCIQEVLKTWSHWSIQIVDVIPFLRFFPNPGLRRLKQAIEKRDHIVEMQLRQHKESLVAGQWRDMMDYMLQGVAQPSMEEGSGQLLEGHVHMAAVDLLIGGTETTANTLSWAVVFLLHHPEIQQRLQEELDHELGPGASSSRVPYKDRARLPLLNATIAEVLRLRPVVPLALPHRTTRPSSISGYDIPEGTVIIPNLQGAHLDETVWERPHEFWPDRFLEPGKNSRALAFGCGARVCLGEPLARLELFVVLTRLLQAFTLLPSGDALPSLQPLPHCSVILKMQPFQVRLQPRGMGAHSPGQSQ

[4] = molecular target: T1, Steroid 17-alpha-hydroxylase/17,20 lyase; experiment: Inhibition of CYP17 in human testicular microsomes using 17alpha-hydroxypregnenolone as substrate assessed as decrease in DHEA levels after 90 mins by ELISA; design: species or system Testis
[5] = molecular target: T1, Steroid 17-alpha-hydroxylase/17,20 lyase; experiment: Inhibition of CYP17 in human H295R cells assessed as decrease in testosterone levels after 24 hrs by ELISA; format: cell-based
[6] = molecular target: T3, CYP11B (Rattus norvegicus, UniProt P15393+P30099); experiment: Inhibition of Sprague-Dawley rat adrenal mitochondrial CYP11B assessed as decrease in conversion of 11-deoxycortisol to cortisol at 100 nM incubated for 60 mins by ELISA relative to control; format: protein assay; conditions: adrenal mitochondria, probe 11-deoxycortisol
T3 sequence (P30099 whole entry): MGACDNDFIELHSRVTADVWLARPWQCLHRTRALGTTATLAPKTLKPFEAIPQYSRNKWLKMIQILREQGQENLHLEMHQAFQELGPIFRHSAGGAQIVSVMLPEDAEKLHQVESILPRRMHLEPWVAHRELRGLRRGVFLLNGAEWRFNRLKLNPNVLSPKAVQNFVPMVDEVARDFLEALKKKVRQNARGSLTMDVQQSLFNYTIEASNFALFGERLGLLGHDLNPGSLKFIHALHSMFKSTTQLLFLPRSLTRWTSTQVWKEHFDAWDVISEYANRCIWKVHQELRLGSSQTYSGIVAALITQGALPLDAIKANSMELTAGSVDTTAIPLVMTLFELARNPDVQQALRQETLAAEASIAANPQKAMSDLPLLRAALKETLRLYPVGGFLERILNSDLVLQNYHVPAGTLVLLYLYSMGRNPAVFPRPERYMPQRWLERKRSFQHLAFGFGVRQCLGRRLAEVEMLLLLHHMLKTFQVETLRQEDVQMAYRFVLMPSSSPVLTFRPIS
T3 sequence (P15393 whole entry): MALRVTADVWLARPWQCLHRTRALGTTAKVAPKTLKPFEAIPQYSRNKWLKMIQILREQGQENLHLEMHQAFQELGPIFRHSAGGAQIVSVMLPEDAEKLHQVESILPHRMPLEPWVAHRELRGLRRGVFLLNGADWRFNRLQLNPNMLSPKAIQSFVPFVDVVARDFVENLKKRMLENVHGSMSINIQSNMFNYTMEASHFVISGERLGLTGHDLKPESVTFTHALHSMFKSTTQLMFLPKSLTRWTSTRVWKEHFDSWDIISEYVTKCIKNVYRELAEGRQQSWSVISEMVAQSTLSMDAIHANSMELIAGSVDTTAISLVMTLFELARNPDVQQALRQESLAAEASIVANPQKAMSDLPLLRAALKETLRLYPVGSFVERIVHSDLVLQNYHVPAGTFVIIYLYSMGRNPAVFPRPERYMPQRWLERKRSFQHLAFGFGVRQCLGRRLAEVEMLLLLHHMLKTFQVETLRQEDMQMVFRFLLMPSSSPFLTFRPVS

[7] = molecular target: T1, Steroid 17-alpha-hydroxylase/17,20 lyase; experiment: Inhibition of CYP17 in human testicular microsomes using 17alpha-hydroxypregnenolone as substrate assessed as decrease in DHEA levels at 10 nM after 90 mins by ELISA relative to control; design: species or system Testis; conditions: 1.5 h

| inhibition at 1 h, 0.1 µM [6] [%] | SMILES | half-life at 1 µM [1] [min] | IC50 [2] [µM] | inhibition at 20 h [3] [%] | IC50 [4] [µM] | IC50 [5] [µM] | inhibition at 0.01 µM [7] [%] |
| --- | --- | --- | --- | --- | --- | --- | --- |
| – | C[C@]12CC[C@H]3[C@@H](C=CC4=CC(=O)CC[C@@]43C)C1=CC=C2c1cccnc1 | 1 to 50 | 0.01 to 0.1 | ≥ 50 | ≤ 0.011 | – | – |
| – | C[C@]12CCNC(=O)C=C1C1(CC1)C[C@@H]1[C@@H]2CC[C@]2(C)C(c3cccnc3)=CC[C@@H]12 | 1 to 50 | ≤ 0.01 | 10 to 50 | ≤ 0.011 | ≤ 0.015 | – |
| ≥ 50 | CN1C(=O)C[C@@]2(C)C1=CC[C@@H]1[C@@H]2CC[C@]2(C)C(n3ccnc3)=CC[C@@H]12 | – | – | 10 to 50 | – | – | – |
| ≥ 50 | C[C@]12CC[C@H]3[C@@H](CC=C4C[C@H](NC(=O)C5CC5)CC[C@@]43C)C1=CC=C2n1ccnc1 | – | – | 10 to 50 | – | – | – |
| – | C[C@]12CC[C@H]3[C@@H](CCC4=CC(=O)NCC[C@@]43C)C1=CC=C2c1cncc(F)c1 | 1 to 50 | > 0.1 | 10 to 50 | – | ≤ 0.015 | – |
| < 32 | CN1C(=O)CC[C@@]2(C)C1=CC[C@@H]1[C@@H]2CC[C@]2(C)C(n3cncc3C#N)=CC[C@@H]12 | – | – | < 10 | – | – | – |
| – | C[C@]12CCC(=O)C=C1C1(CC1)C[C@@H]1[C@@H]2CC[C@]2(C)C(c3cccnc3)=CC[C@@H]12 | 1 to 50 | ≤ 0.01 | ≥ 50 | ≤ 0.011 | ≤ 0.015 | – |
| ≥ 50 | CCOc1cncc(C2=CC[C@H]3[C@@H]4CC=C5N(C)C(=O)C[C@]5(C)[C@H]4CC[C@]23C)c1 | – | – | 10 to 50 | – | – | – |
| ≥ 50 | CN1C(=O)CC[C@@]2(C)C1=CC[C@@H]1[C@@H]2CC[C@]2(C)C(c3cncc(F)c3)=CC[C@@H]12 | – | – | 10 to 50 | – | – | – |
| – | CC1C[C@H]2C3=CC=C(c4cncc(F)c4)[C@@]3(C)CC[C@@H]2[C@@]2(C)CCC(=O)C=C12 (some centres undefined) | 1 to 50 | ≤ 0.01 | 10 to 50 | – | ≤ 0.015 | – |
| – | C[C@]12CCNC(=O)C=C1C1CC1[C@@H]1[C@@H]2CC[C@]2(C)C(c3cccnc3)=CC[C@@H]12 (some centres undefined) | 1 to 50 | > 0.1 | ≥ 50 | ≤ 0.011 | – | – |
| – | C[C@]12CC[C@H]3[C@@H](CCC4=CC(=O)C=C[C@@]43C)C1=CC=C2c1cccnc1 | 1 to 50 | 0.01 to 0.1 | ≥ 50 | ≤ 0.011 | ≤ 0.015 | – |
| – | C=C1C[C@@H]2[C@H](CC[C@]3(C)C(c4cccnc4)=CC[C@@H]23)[C@@]2(C)CCC(=O)C=C12 | 1 to 50 | 0.01 to 0.1 | ≥ 50 | ≤ 0.011 | ≤ 0.015 | – |
| – | C[C@]12CC[C@H]3[C@@H](CCC4=CC(=O)CC[C@@]43C)C1=CC=C2c1cncc(F)c1 | 1 to 50 | 0.01 to 0.1 | ≥ 50 | ≤ 0.011 | ≤ 0.015 | – |
| – | CC1C[C@H]2C3=CC=C(c4cccnc4)[C@@]3(C)CC[C@@H]2[C@@]2(C)C=CC(=O)C=C12 (some centres undefined) | 1 to 50 | ≤ 0.01 | ≥ 50 | – | – | ≥ 80 |
| – | C[C@]12CC[C@H]3[C@@H](CCC4=CC(=O)CC[C@@]43C)C1=CC=C2c1cncnc1 | 1 to 50 | 0.01 to 0.1 | ≥ 50 | ≤ 0.011 | – | – |
| < 32 | CC(=O)N[C@@H]1CC[C@@]2(C)C(=CC[C@H]3C4=CC=C(n5ccnc5)[C@@]4(C)CC[C@@H]32)C1 | – | – | 10 to 50 | – | – | – |
| – | CCC1C[C@H]2C3=CC=C(c4cccnc4)[C@@]3(C)CC[C@@H]2[C@@]2(C)CCC(=O)C=C12 (some centres undefined) | 1 to 50 | 0.01 to 0.1 | 10 to 50 | ≤ 0.011 | – | – |
| – | CC1C[C@@H]2[C@H](CC[C@]3(C)C(c4cccnc4)=CC[C@@H]23)[C@@]2(C)CCC(=O)C=C12 (some centres undefined) | 1 to 50 | 0.01 to 0.1 | ≥ 50 | ≤ 0.011 | ≤ 0.015 | – |
| – | CC1C[C@@H]2[C@H](CC[C@]3(C)C(c4cccnc4)=CC[C@@H]23)[C@@]2(C)C=CC(=O)C=C12 (some centres undefined) | 1 to 50 | ≤ 0.01 | ≥ 50 | – | ≤ 0.015 | – |
| – | C=C1C[C@@H]2[C@H](CC[C@]3(C)C(c4cncc(F)c4)=CC[C@@H]23)[C@@]2(C)C=CC(=O)C=C12 | 1 to 50 | > 0.1 | – | ≤ 0.011 | ≤ 0.015 | – |
| ≥ 50 | C[C@]12CCCN(S(C)(=O)=O)CC1CC[C@@H]1[C@@H]2CC[C@]2(C)C(n3ccnc3)=CC[C@@H]12 (some centres undefined) | – | – | – | – | – | – |
| – | C[C@]12C=CC(=O)C=C1C1(CC1)C[C@@H]1[C@@H]2CC[C@]2(C)C(c3cccnc3)=CC[C@@H]12 | 1 to 50 | ≤ 0.01 | 10 to 50 | ≤ 0.011 | ≤ 0.015 | – |
| ≥ 50 | CC(=O)N1CCC[C@@]2(C)[C@@H](CC[C@@H]3[C@@H]2CC[C@]2(C)C(n4ccnc4)=CC[C@@H]32)C1 | – | – | 10 to 50 | – | – | – |
| – | CC1C[C@@H]2[C@H](CC[C@]3(C)C(c4cncc(F)c4)=CC[C@@H]23)[C@@]2(C)CCC(=O)C=C12 (some centres undefined) | – | > 0.1 | ≥ 50 | ≤ 0.011 | ≤ 0.015 | – |
| – | CC1C[C@H]2C3=CC=C(c4cccnc4)[C@@]3(C)CC[C@@H]2[C@@]2(C)CCC(=O)C=C12 (some centres undefined) | 1 to 50 | ≤ 0.01 | ≥ 50 | ≤ 0.011 | – | – |
| < 32 | Cc1cncc(C2=CC[C@H]3[C@@H]4CC=C5N(C)C(=O)C[C@]5(C)[C@H]4CC[C@]23C)c1 | – | – | 10 to 50 | – | – | – |
| – | CC1C[C@@H]2[C@H](CC[C@]3(C)C(c4cccnc4)CC[C@@H]23)[C@@]2(C)C=CC(=O)C=C12 (some centres undefined) | 1 to 50 | ≤ 0.01 | – | ≤ 0.111 | – | – |
| – | C=C1CC2[C@H](CC[C@]3(C)C(c4cccnc4)=CC[C@@H]23)C2(C)C=CC(=O)C=C12 (single isomer, unassigned) | 1 to 50 | ≤ 0.01 | ≥ 50 | ≤ 0.011 | ≤ 0.015 | – |
